Assay [1] has as its target T1, unphosphorylated VEGF-R2D50 (FLVK), cytosolic domain of human VEGF-R2 (Homo sapiens, UniProt P35968, DEL940-989/E990V).
T1 construct: VEGF-R2D50 contains residues 806–939 and 990–1171; made in house; host or cells: baculovirus/insect cell system
Description: VEGF-R2 coupled spectrophotometric assay (FLVK). It is filed as biochemical. The text has this: This construct determines the ability of a test compound to inhibit tyrosine kinase activity. A construct (VEGF-R2D50) of the cytosolic domain of human vascular endothelial growth factor receptor 2 (VEGF-R2) lacking the 50 central residues of the 68 residues of the kinase insert domain was expressed in a baculovirus/insect cell system. Of the 1356 residues of full-length VEGF-R2, VEGF-R2D50 contains residues 806–939 and 990–1171, and also one point mutation (E990V) within the kinase insert domain relative to wild-type VEGF-R2. Autophosphorylation of the purified construct was performed by incubation of the enzyme at a concentration of […] in the presence of 3 mM ATP and 40 mM MgCl2 in 100 mM HEPES, pH 7.5, containing 5% glycerol and 5 mM DTT, at 4° C. for 2 h. […] See Parast et al., Biochemistry, 37, 16788–16801 (1998).
The production of ADP from ATP that accompanies phosphoryl transfer was coupled to oxidation of NADH using phosphoenolpyruvate (PEP) and a system having pyruvate kinase (PK) and lactic dehydrogenase (LDH). The oxidation of NADH was monitored by following the decrease of absorbance at 340 nm (e340=6.22 cm^−1 mM^−1) using a Beckman DU 650 spectrophotometer. Assay conditions for phosphorylated VEGF-R2D50 (indicated as FLVK-P in the tables below) were the following: 1 mM PEP; […]; 50 units of LDH/mL; 20 units of PK/mL; 5 mM DTT; 5.1 mM poly(E4Y1); 1 mM ATP; and 25 mM MgCl2 in 200 mM HEPES, pH 7.5. Assay conditions for unphosphorylated VEGF-R2D50 (indicated as FLVK in the tables) were the following: 1 mM PEP; […]; 50 units of LDH/mL; 20 units of PK/mL; 5 mM DTT; 20 mM poly(E4Y1); 3 mM ATP; and 60 mM MgCl2 and 2 mM MnCl2 in 200 mM HEPES, pH 7.5. Assays were initiated with 5 to 40 nM of enzyme. Ki values were determined by measuring enzyme activity in the presence of varying concentrations of test compounds. The percent inhibition at 50 nm (% inhibition@50 nm) was determined by linear least-squares regression analysis of absorpbance as a function of time. The binding inhibitions were fitted to equation as described by Morrison. The data were analyzed using Enzyme Kinetic and Kaleidagraph software.

Assay [2] has as its target T2, FGF-R1 intracellular kinase domain (Homo sapiens, UniProt P11362, C488A/C584S/L457V).
T2 construct: starting from the endogenous methionine residue 456 to glutamate 766; made in house; host or cells: baculovirus vector expression system
Description: FGF-R spectrophotometric assay. It is filed as biochemical. The following applies: 50 nM test compound; read-out: FGF-P (% inh @ 50 nM). The protocol:
The intracellular kinase domain of human FGF-R1 was expressed using the baculovirus vector expression system starting from the endogenous methionine residue 456 to glutamate 766, according to the residue numbering system of Mohammadi et al., Mol. Cell. Biol., 16, 977–989 (1996). In addition, the construct also has the following 3 amino acid substitutions: L457V, C488A, and C584S.
The spectrophotometric assay was carried out as described above for VEGF-R2, except for the following changes in concentration: FGF-R=50 nM, ATP=2 mM, and poly(E4Y1)=15 mM.

T2 sequence (P11362 456-766 L457V/C488A/C584S): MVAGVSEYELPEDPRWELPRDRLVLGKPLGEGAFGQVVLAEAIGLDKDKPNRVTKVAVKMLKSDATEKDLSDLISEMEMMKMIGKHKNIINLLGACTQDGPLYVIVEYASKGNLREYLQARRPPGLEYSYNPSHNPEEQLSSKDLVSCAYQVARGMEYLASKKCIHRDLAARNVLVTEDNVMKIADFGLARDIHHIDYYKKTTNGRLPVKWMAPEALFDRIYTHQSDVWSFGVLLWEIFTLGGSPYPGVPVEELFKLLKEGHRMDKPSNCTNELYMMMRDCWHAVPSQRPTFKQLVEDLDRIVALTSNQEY
T1 sequence (P35968 with tags, fused parts or gaps DEL940-989/E990V limits assumed): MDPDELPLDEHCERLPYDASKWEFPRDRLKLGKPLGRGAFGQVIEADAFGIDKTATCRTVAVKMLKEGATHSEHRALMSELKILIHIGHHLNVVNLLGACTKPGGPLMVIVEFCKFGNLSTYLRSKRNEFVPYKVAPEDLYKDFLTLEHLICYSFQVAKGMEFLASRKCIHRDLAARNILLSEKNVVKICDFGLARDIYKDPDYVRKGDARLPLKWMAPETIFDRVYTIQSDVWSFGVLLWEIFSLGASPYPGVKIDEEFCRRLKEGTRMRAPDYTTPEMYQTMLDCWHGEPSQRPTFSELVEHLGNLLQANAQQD

Consider `Cc1cc(C)nc(NC(=O)Cc2ccc(Oc3ccnc4cc(-c5nccn5C)sc34)c(F)c2)c1` [Example 1, N-(4,6-Dimethyl-pyridin-2-yl)-2-{3-fluoro-4-[2-(1-methyl-1H-imidazol-2-yl)-thieno[3,2-b]pyridin-7-yloxy]-phenyl}-acetamide], for which the inhibition constant (Ki) in assay [1] is below 0.001 µM. Besides, in assay [2], the inhibition at 0.05 µM fell in the range of 0 to 5%.

`CNC(=O)Cc1ccc(Oc2ccnc3cc(C(=O)N4CC[C@@H](O)C4)sc23)c(F)c1` [Example 2, 2-{3-Fluoro-4-[2-((R)-3-hydroxy-pyrrolidine-1-carbonyl)-thieno[3,2-b]pyridin-7-yloxy]-phenyl}-N-methyl-acetamide] came in with an inhibitory constant (Ki) in assay [1] above 0.01 µM. For the same molecule, in assay [2], the inhibition at 0.05 µM fell in the range of 0 to 5%.

`Cc1cc(C)nc(NC(=O)Cc2ccc(Oc3ccnc4cc(C(=O)N(C)CCCN(C)C)sc34)cc2)c1` [Example 5, 7-{4-[(4,6-Dimethyl-pyridin-2-ylcarbamoyl)-methyl]-phenoxy}-thieno[3,2-b]pyridine-2-carboxylic acid (3-dimethylamino-propyl)-methyl-amide]: the inhibition at 0.05 µM in assay [2] fell in the range of 0 to 5%.

`Cc1cccnc1NC(=O)Cc1ccc(Oc2ccnc3cc(C(=O)N4CCC4)sc23)cc1` [Example 26, 2-{4-[2-(Azetidine-1-carbonyl)-thieno[3,2-b]pyridin-7-yloxy]-phenyl}-N-(3-methyl-pyridin-2-yl)-acetamide] came in with a Ki in assay [1] above 0.01 µM.

Regarding `O=C(Cc1ccc(Oc2ccnc3cc(C(=O)N4CCC4)sc23)cc1)Nc1ccncc1` [Example 35, 2-{4-[2-(Azetidine-1-carbonyl)-thieno[3,2-b]pyridin-7-yloxy]-phenyl}-N-pyridin-4-yl-acetamide], the inhibition constant (Ki) in assay [1] was above 0.01 µM. Also, the inhibition at 0.05 µM in assay [2] was 0 to 5%.

For `Cc1cc(NC(=O)Cc2ccc(Oc3ccnc4cc(C(=O)N5CCC5)sc34)cc2)n[nH]1` [Example 39, 2-{4-[2-(Azetidine-1-carbonyl)-thieno[3,2-b]pyridin-7-yloxy]-phenyl}-N-(5-methyl-1H-pyrazol-3-yl)-acetamide], the inhibition at 0.05 µM in assay [2] lay within 0 to 5%.

Take `O=C(Cc1ccc(Oc2ccnc3cc(C(=O)N4CCC4)sc23)cc1)Nc1cc[nH]n1` [Example 40, 2-{4-[2-(Azetidine-1-carbonyl)-thieno[3,2-b]pyridin-7-yloxy]-phenyl}-N-(1H-pyrazol-3-yl)-acetamide]: the Ki in assay [1] was above 0.01 µM. Besides, the inhibition at 0.05 µM in assay [2] is 0 to 5%.

Take `O=C(Cc1ccc(Oc2ccnc3cc(C(=O)N4CCC4)sc23)cc1)Nc1ccon1` [Example 42, 2-{4-[2-(Azetidine-1-carbonyl)-thieno[3,2-b]pyridin-7-yloxy]-phenyl}-N-isoxazol-3-yl-acetamide]: in assay [1], the Ki was above 0.01 µM. For the same molecule, in assay [2], the inhibition at 0.05 µM is 0 to 5%.

`Cc1coc(NC(=O)Cc2ccc(Oc3ccnc4cc(C(=O)N5CCC5)sc34)cc2Cl)n1` [Example 54, 2-{4-[2-(Azetidine-1-carbonyl)-thieno[3,2-b]pyridin-7-yloxy]-2-chloro-phenyl}-N-(4-methyl-oxazol-2-yl)-acetamide] registered a Ki in assay [1] above 0.01 µM. The inhibition at 0.05 µM in assay [2] was in the range of 0 to 5%.

In assay [1], `O=C(Cc1ccc(Oc2ccnc3cc(C(=O)N4CCC4)sc23)cc1Cl)NCCCN1CCOCC1` [Example 57, 2-{4-[2-(Azetidine-1-carbonyl)-thieno[3,2-b]pyridin-7-yloxy]-2-chloro-phenyl}-N-(3-morpholin-4-yl-propyl)-acetamide] showed an inhibition constant Ki above 0.01 µM. In addition, the inhibition at 0.05 µM in assay [2] lay in the range of 0 to 5%.

As for `Cc1ccc(CNC(=O)Cc2ccc(Oc3ccnc4cc(-c5nccn5C)sc34)cc2Cl)o1` [Example 58, 2-{2-Chloro-4-[2-(1-methyl-1H-imidazol-2-yl)-thieno[3,2-b]pyridin-7-yloxy]-phenyl}-N-(5-methyl-furan-2-ylmethyl)-acetamide], the inhibition constant Ki in assay [1] was above 0.01 µM. The inhibition at 0.05 µM in assay [2] fell in the range of 0 to 5%.

`Cn1ccnc1-c1cc2nccc(Oc3ccc(CC(=O)NCc4cccc(F)c4)c(Cl)c3)c2s1` [Example 59, 2-{2-Chloro-4-[2-(1-methyl-1H-imidazol-2-yl)-thieno[3,2-b]pyridin-7-yloxy]-phenyl}-N-(3-fluoro-benzyl)-acetamide] came in with a Ki in assay [1] above 0.01 µM. For the same molecule, the inhibition at 0.05 µM in assay [2] was in the range of 0 to 5%.

Turning to `CNC(=O)Cc1ccc(Oc2ccnc3cc(C(=O)N4CCC4)sc23)cc1Cl` [Example 63, 2-{4-[2-(Azetidine-1-carbonyl)-thieno[3,2-b]pyridin-7-yloxy]-2-chloro-phenyl}-N-methyl-acetamide], the inhibition constant Ki in assay [1] was above 0.01 µM. The inhibition at 0.05 µM in assay [2] was 0 to 5%.

Molecule `CNC(=O)Cc1ccc(Oc2ccnc3cc(C(=O)N4CC[C@@H](O)C4)sc23)cc1Cl` [Example 64, 2-{2-Chloro-4-[2-((R)-3-hydroxy-pyrrolidine-1-carbonyl)-thieno[3,2-b]pyridin-7-yloxy]-phenyl}-N-methyl-acetamide] came in with a Ki in assay [1] above 0.01 µM. In addition, in assay [2], the inhibition at 0.05 µM was in the range of 0 to 5%.

`CNC(=O)Cc1ccc(Oc2ccnc3cc(-c4nccn4C)sc23)cc1Cl` [Example 65, 2-{2-Chloro-4-[2-(1-methyl-1H-imidazol-2-yl)-thieno[3,2-b]pyridin-7-yloxy]-phenyl}-N-methyl-acetamide] displayed a Ki in assay [1] above 0.01 µM. For the same molecule, the inhibition at 0.05 µM in assay [2] was in the range of 0 to 5%.

The molecule `CNC(=O)C1(c2ccc(Oc3ccnc4cc(C(=O)N5CC[C@@H](O)C5)sc34)cc2)CC1` [Example 67, 1-{4-[2-((R)-3-Hydroxy-pyrrolidine-1-carbonyl)-thieno[3,2-b]pyridin-7-yloxy]-phenyl}-cyclopropanecarboxylic acid methylamide] returned a Ki in assay [1] above 0.01 µM. Moreover, the inhibition at 0.05 µM in assay [2] lay in the range of 0 to 5%.

In turn, `CNC(=O)Cc1ccc(Oc2ccnc3cc(C(=O)N4CC[C@H](OC)C4)sc23)cc1` [Example 68, 2-{4-[2-((S)-3-Methoxy-pyrrolidine-1-carbonyl)-thieno[3,2-b]pyridin-7-yloxy]-phenyl}-N-methyl-acetamide] registered a Ki in assay [1] above 0.01 µM. In addition, the inhibition at 0.05 µM in assay [2] fell in the range of 0 to 5%.

As for `CNC(=O)C(OC)c1ccc(Oc2ccnc3cc(C(=O)N4CC[C@@H](O)C4)sc23)cc1Cl` (stereo partly drawn) [Example 70, 2-{2-Chloro-4-[2-((R)-3-hydroxy-pyrrolidine-1-carbonyl)-thieno[3,2-b]pyridin-7-yloxy]-phenyl}-2-methoxy-N-methyl-acetamide], in assay [1], the Ki is above 0.01 µM. Further, the inhibition at 0.05 µM in assay [2] is 5 to 10%.

Take `CNC(=O)C(O)c1ccc(Oc2ccnc3cc(C(=O)N4CC[C@@H](O)C4)sc23)cc1Cl` (stereo partly drawn) [Example 71, 2-{2-Chloro-4-[2-((R)-3-hydroxy-pyrrolidine-1-carbonyl)-thieno[3,2-b]pyridin-7-yloxy]-phenyl}-2-hydroxy-N-methyl-acetamide]: the Ki in assay [1] was above 0.01 µM. For the same molecule, the inhibition at 0.05 µM in assay [2] fell in the range of 0 to 5%.

`CNC(=O)C(OC)c1ccc(Oc2ccnc3cc(-c4nccn4C)sc23)cc1Cl` (stereo not drawn) [Example 72, 2-{2-Chloro-4-[2-(1-methyl-1H-imidazol-2-yl)-thieno[3,2-b]pyridin-7-yloxy]-phenyl}-2-methoxy-N-methyl-acetamide]: the inhibition at 0.05 µM in assay [2] lay within 0 to 5%.

With `CNC(=O)C(O)c1ccc(Oc2ccnc3cc(-c4nccn4C)sc23)cc1Cl` (stereo not drawn) [Example 73, 2-{2-Chloro-4-[2-(1-methyl-1H-imidazol-2-yl)-thieno[3,2-b]pyridin-7-yloxy]-phenyl}-2-hydroxy-N-methyl-acetamide], the inhibition at 0.05 µM in assay [2] fell in the range of 0 to 5%.

In assay [1], `CNC(=O)C(O)c1ccc(Oc2ccnc3cc(-c4nc(C(C)(C)O)cs4)sc23)cc1` (stereo not drawn) [Example 75, 2-Hydroxy-2-(4-{2-[4-(1-hydroxy-1-methyl-ethyl)-thiazol-2-yl]-thieno[3,2-b]pyridin-7-yloxy}-phenyl)-N-methyl-acetamide] registered a Ki above 0.01 µM. In addition, in assay [2], the inhibition at 0.05 µM lay in the range of 0 to 5%.

Source of the values: US7208500B2, “Thienopyridine-phenylacetamides and their derivatives useful as new anti-angiogenic agents” (Agouron Pharmaceuticals, Inc., priority 2003, dated 2007).
